Test results taken from the supplement of paper PMC11061612.

How the values were obtained:
Assay in all cases: combination Emax (second highest fraction inhibited in the dose matrix, 72 h); higher = more inhibition; extreme values may be limits of the assay
[1] = system: RH-41 (Rhabdomyosarcoma)
How it was run: (§1)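 Bliss excess equals the observed combination effect minus the expected value EA + EB − EA·EB, where EA and EB are the effects of each agent alone. Combination Emax is the second-highest inhibition within the matrix. Inhibition was scaled from CellTiter-Glo 2.0 luminescence, with 0 set by vehicle wells and 1 by blank wells, after 72 hours of two-drug dosing of cells plated in 1536-well plates.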

[2] = system: NCI-H2228 (Lung Adenocarcinoma)
How it was run: as §1

[3] = system: 5637 (Bladder Carcinoma)
How it was run: as §1

[4] = system: G-402 (Other Solid Carcinomas)
How it was run: as §1

[5] = system: SK-HEP-1 (Hepatocellular Carcinoma)
How it was run: as §1

[6] = system: HCC70 (Breast Carcinoma)
How it was run: as §1

[7] = system: CGTH-W-1 (Thyroid Gland Carcinoma)
How it was run: as §1

[8] = system: HCC1428 (Breast Carcinoma)
How it was run: as §1

[9] = system: KP-N-YN (Neuroblastoma)
How it was run: as §1

[10] = system: NCI-H2087 (Lung Adenocarcinoma)
How it was run: as §1

[11] = system: NB13 (Neuroblastoma)
How it was run: as §1

[12] = system: EW-16 (Ewing's Sarcoma)
How it was run: as §1

[13] = system: JVM-2 (B-Cell Non-Hodgkin's Lymphoma)
How it was run: as §1

[14] = system: EPLC-272H (Other Solid Carcinomas)
How it was run: as §1

[15] = system: ESO26 (Esophageal Adenocarcinoma)
How it was run: as §1

[16] = system: SW620 (Colorectal Carcinoma)
How it was run: as §1

[17] = system: CESS (Acute Myeloid Leukemia)
How it was run: as §1

[18] = system: MHH-ES-1 (Ewing's Sarcoma)
How it was run: as §1

[19] = system: Jurkat (T-Lymphoblastic Leukemia)
How it was run: as §1

[20] = system: HT55 (Colorectal Carcinoma)
How it was run: as §1

Row | SMILES | combination Emax [1] | combination Emax [2] | combination Emax [3] | combination Emax [4] | combination Emax [5] | combination Emax [6] | combination Emax [7] | combination Emax [8] | combination Emax [9] | combination Emax [10] | combination Emax [11] | combination Emax [12] | combination Emax [13] | combination Emax [14] | combination Emax [15] | combination Emax [16] | combination Emax [17] | combination Emax [18] | combination Emax [19] | combination Emax [20]
1 | Cn1cnc2c(F)c(Nc3ccc(Br)cc3Cl)c(C(=O)NOCCO)cc21 [Selumetinib] + C[C@@H]1COCCN1C2=NC(=NC(=C2)C3(CC3)[S@](=N)(=O)C)C4=C5C=CNC5=NC=C4 [AZD6738] (first compound max 10 µM, 7x7, partner max 10 µM) | 0.736 | 0.405 | 0.633 | 0.645 | 0.223 | 0.778 | 0.162 | 0.187 | 0.949 | 0.661 | 0.855 | 0.587 | 0.825 | 0.902 | 0.486 | 0.781 | 0.815 | 0.525 | 0.913 | 0.735
2 | CC(=O)Nc1cccc(-n2c(=O)n(C3CC3)c(=O)c3c(Nc4ccc(I)cc4F)n(C)c(=O)c(C)c32)c1 [Trametinib] + Cc1nc(-c2cn3c(n2)-c2ccc(-c4cnn(C(C)(C)C(N)=O)c4)cc2OCC3)n(C(C)C)n1 [Taselisib] (first compound max 1 µM, 7x7, partner max 10 µM) | 1 | 0.914 | 0.989 | 0.792 | 0.561 | 1 | 0.99 | 0.278 | 0.528 | 0.639 | 0.428 | 0.604 | 0.746 | 1 | 0.746 | 0.77 | 0.66 | 0.563 | 0.692 | 0.859
3 | CC1(C)CCC(CN2CCN(c3ccc(C(=O)NS(=O)(=O)c4ccc(NCC5CCOCC5)c([N+](=O)[O-])c4)c(Oc4cnc5[nH]ccc5c4)c3)CC2)=C(c2ccc(Cl)cc2)C1 [Venetoclax] + C1CN(CCC1(C(=O)N[C@@H](CCO)C2=CC=C(C=C2)Cl)N)C3=NC=NC4=C3C=CN4 [Capivasertib] (first compound max 1 µM, 7x7, partner max 3 µM) | 0.945 | 0.405 | 0.168 | 0.425 | 0.168 | 0.686 | 0.215 | 0.119 | 0.573 | 0.123 | 0.465 | 0.236 | 0.661 | 0.562 | 0.311 | 0.151 | 0.467 | 0.323 | 0.639 | 0.363
4 | CC1(C)CCC(CN2CCN(c3ccc(C(=O)NS(=O)(=O)c4ccc(NCC5CCOCC5)c([N+](=O)[O-])c4)c(Oc4cnc5[nH]ccc5c4)c3)CC2)=C(c2ccc(Cl)cc2)C1 [Venetoclax] + C=CCn1c(=O)c2cnc(Nc3ccc(N4CCN(C)CC4)cc3)nc2n1-c1cccc(C(C)(C)O)n1 [AZD1775] (first compound max 1 µM, partner max 1 µM) | 1 | 0.494 | 0.861 | 0.435 | 0.34 | 0.805 | 0.377 | 0.22 | 0.981 | 0.401 | 0.928 | 0.526 | 0.97 | 0.761 | 0.682 | 0.51 | 0.966 | 0.776 | 0.907 | 0.664
5 | CC1(C)CCC(CN2CCN(c3ccc(C(=O)NS(=O)(=O)c4ccc(NCC5CCOCC5)c([N+](=O)[O-])c4)c(Oc4cnc5[nH]ccc5c4)c3)CC2)=C(c2ccc(Cl)cc2)C1 [Venetoclax] + CCN(CCO)CCCOc1ccc2c(Nc3cc(CC(=O)Nc4cccc(F)c4)[nH]n3)ncnc2c1 [AZD2811] (first compound max 1 µM, 7x7, partner max 1 µM) | 0.418 | 0.253 | 0.607 | 0.667 | 0.27 | 0.616 | 0.272 | 0.451 | 0.913 | 0.176 | 0.548 | 0.714 | 0.681 | 0.371 | 0.126 | 0.229 | 0.615 | 0.657 | 0.2 | 0.235
6 | CC1(C)CCC(CN2CCN(c3ccc(C(=O)NS(=O)(=O)c4ccc(NCC5CCOCC5)c([N+](=O)[O-])c4)c(Oc4cnc5[nH]ccc5c4)c3)CC2)=C(c2ccc(Cl)cc2)C1 [Venetoclax] + CN(C)CCCOc1ccc(-c2ccc3ncc4c(c3c2)n(C2CCOCC2)c(=O)n4C)cn1 [AZD0156] (first compound max 1 µM, 7x7, partner max 1 µM) | 0.491 | 0.306 | 0.15 | 0.359 | 0.158 | 0.395 | 0.17 | 0.161 | 0.528 | 0.149 | 0.468 | 0.19 | 0.34 | 0.395 | 0.0967 | 0.196 | 0.142 | 0.487 | 0.161 | 0.173
7 | CC1(C)CCC(CN2CCN(c3ccc(C(=O)NS(=O)(=O)c4ccc(NCC5CCOCC5)c([N+](=O)[O-])c4)c(Oc4cnc5[nH]ccc5c4)c3)CC2)=C(c2ccc(Cl)cc2)C1 [Venetoclax] + COc1cc(Nc2ncc3c(n2)-c2ccc(Cl)cc2C(c2c(F)cccc2OC)=NC3)ccc1C(=O)O [Alisertib] (first compound max 1 µM, 7x7, partner max 10 µM) | 0.765 | 0.396 | 0.778 | 0.57 | 0.349 | 0.412 | 0.598 | 0.339 | 0.827 | 0.177 | 0.932 | 0.726 | 0.892 | 0.514 | 0.198 | 0.387 | 0.89 | 0.795 | 0.741 | 0.347
8 | CC1(C)CCC(CN2CCN(c3ccc(C(=O)NS(=O)(=O)c4ccc(NCC5CCOCC5)c([N+](=O)[O-])c4)c(Oc4cnc5[nH]ccc5c4)c3)CC2)=C(c2ccc(Cl)cc2)C1 [Venetoclax] + C[C@@H]1COCCN1C2=NC(=NC(=C2)C3(CC3)[S@](=N)(=O)C)C4=C5C=CNC5=NC=C4 [AZD6738] (first compound max 1 µM, 7x7, partner max 10 µM) | 0.855 | 0.476 | 0.69 | 0.705 | 0.28 | 0.819 | 0.366 | 0.397 | 0.999 | 0.53 | 0.942 | 0.792 | 0.892 | 0.873 | 0.508 | 0.47 | 0.929 | 0.707 | 0.921 | 0.58
9 | CC1(C)CCC(CN2CCN(c3ccc(C(=O)NS(=O)(=O)c4ccc(NCC5CCOCC5)c([N+](=O)[O-])c4)c(Oc4cnc5[nH]ccc5c4)c3)CC2)=C(c2ccc(Cl)cc2)C1 [Venetoclax] + C[C@@H](Nc1cc(F)cc(F)c1)c1cc(C(=O)N(C)C)cc2c(=O)cc(N3CCOCC3)oc12 [AZD8186] (first compound max 1 µM, 7x7, partner max 3 µM) | 0.491 | 0.293 | 0.141 | 0.29 | 0.131 | 0.532 | 0.116 | 0.147 | 0.569 | 0.08 | 0.253 | 0.17 | 0.661 | 0.419 | 0.0996 | 0.0907 | 0.587 | 0.191 | 0.271 | 0.14
10 | CC1(C)CCC(CN2CCN(c3ccc(C(=O)NS(=O)(=O)c4ccc(NCC5CCOCC5)c([N+](=O)[O-])c4)c(Oc4cnc5[nH]ccc5c4)c3)CC2)=C(c2ccc(Cl)cc2)C1 [Venetoclax] + Cc1cc2ncnn2cc1Nc1ncc2c(n1)n(C1CCOCC1)c(=O)n2C [AZD7648] (first compound max 1 µM, 7x7, partner max 10 µM) | 0.608 | 0.4 | 0.251 | 0.501 | 0.219 | 0.399 | 0.259 | 0.139 | 0.542 | 0.133 | 0.368 | 0.193 | 0.528 | 0.514 | 0.134 | 0.175 | 0.327 | 0.26 | 0.303 | 0.205
11 | CC1(C)CCC(CN2CCN(c3ccc(C(=O)NS(=O)(=O)c4ccc(NCC5CCOCC5)c([N+](=O)[O-])c4)c(Oc4cnc5[nH]ccc5c4)c3)CC2)=C(c2ccc(Cl)cc2)C1 [Venetoclax] + Cn1cnc2c(F)c(Nc3ccc(Br)cc3Cl)c(C(=O)NOCCO)cc21 [Selumetinib] (first compound max 1 µM, 7x7, partner max 3 µM) | 0.289 | 0.185 | 0.264 | 0.2 | 0.234 | 0.591 | 0.124 | 0.132 | 0.632 | 0.378 | 0.183 | 0.127 | 0.392 | 0.506 | 0.137 | 0.575 | 0.319 | 0.0867 | 0.277 | 0.728
